A short description of the data set: Solubility profile (free acid in HCl/NaOH solution, supernatants assayed by HPLC). Type of data set: physicochemical. As for the experimental part: A solubility profile for [1-(4-tert-butylbenzyl)-5-(3-methylphenyl)-1H-indol-3-yl](oxo)acetic acid was generated using the free acid in HCl/NaOH solution (See FIG. 3). Solutions were centrifuged after 24 hours equilibration (2 hours for pH<4 to avoid degradation) and the supernatants were assayed by HPLC.

As for `Cc1cccc(-c2ccc3c(c2)c(C(=O)C(=O)O)cn3Cc2ccc(C(C)(C)C)cc2)c1` [[1-(4-tert-Butylbenzyl)-5-(3-methylphenyl)-1H-indol-3-yl](oxo)acetic acid], the pH-solubility profile result by setting is: (above pH 4 up to pH 8, free acid in HCl/NaOH, 24 hours equilibration) “solubility increases with increasing pH”; (above pH 8, precipitation of the sodium salt) “solubility decreases”. Where the note is “pH<4, the stomach condition, 2 hours equilibration”, the solubility result is “poor solubility”. Further, the aqueous solubility entry (upon ionization in aqueous media) is given as “approximately 24 uG/mL”.

(Values after patent US20080188543A1, “PHARMACEUTICAL COMPOSITIONS CONTAINING SUBSTITUTED INDOLE ACID DERIVATIVES AS INHIBITORS OF PLASMINOGEN ACTIVATOR INHIBITOR-1 (PAI-1)” (Wyeth, priority 2007, published 2008).)
